Source: PubChem BioAssay AID192 (DTP/NCI, 2004)
Values joined by “and” are separate entries in the source; they are usually repeats but may differ in a detail not shown here. Identical values can stand only once. Inconclusive results and toxic doses are left out. Numbered stars: 1 amine (or outer) side, 2 acyl side, 3 side chain; on linkers, the order of the positions; unused ones are H or OH. Bridge positions count the residues as written; N and C are the ends. Square brackets hold non-standard residues; d marks the D form. Peptide text beside a SMILES is read from it. I, II: the chains in the order shown. Actinocin(9to1) = Cc1c2oc3c(C)ccc(C(=O)[*:1])c3nc-2c(C(=O)[*:2])c(N)c1=O; NMeV = CN[CH](C(=O)O)C(C)C; Sar = CNCC(=O)O

Test system: BDF1 mice, B16 melanoma ip, median survival T/C
Assay: NCI In Vivo Anticancer Drug Screen. Data for tumor model B16 Melanoma (intraperitoneal) in B6D2F1 (BDF1) mice
Details: endpoint: median survival time, higher = longer survival
Procedure, shortened: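 Vehicle-treated animals serve as the reference (C); treated animals (T) are scored for survival or tumor size after tumor transplantation.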

[1] = dose: 100.0 mg/kg/injection, schedule: Q01DX009 (ip), vehicle: Klucel (hydroxypropylcellulose) (HPC)
[2] = dose: 200.0 mg/kg/injection, schedule: Q01DX009 (ip), vehicle: Klucel (hydroxypropylcellulose) (HPC)
[3] = dose: 50.0 mg/kg/injection, schedule: Q01DX009 (ip), vehicle: Klucel (hydroxypropylcellulose) (HPC)
[4] = dose: 400.0 mg/kg/injection, schedule: Q01DX009 (ip), vehicle: Klucel (hydroxypropylcellulose) (HPC)

CCCCCCCCCCCCCCCCOc1ccc(C(=O)CC(=O)OC)cc1
T/C [1]: 105 % of control
T/C [2]: 94 % of control

N#CCCCc1ccccc1
T/C [3]: 112 % of control
T/C [1]: 106 % of control

CC(NC(=O)c1ccccc1)C(=O)NC(CSC(c1ccccc1)c1ccccc1)C(=O)O (stereo not given)
T/C (dose: 12.5 mg/kg/injection, schedule: Q04DX003 (ip), vehicle: saline): 107 % of control
T/C (dose: 25.0 mg/kg/injection, schedule: Q04DX003 (ip), vehicle: saline): 110 % of control
T/C (dose: 50.0 mg/kg/injection, schedule: Q04DX003 (ip), vehicle: saline): 89 % of control

CN(/N=N/c1nc[nH]c1C(N)=O)C1CCCCC1
T/C (dose: 50.0 mg/kg/injection, schedule: Q01DX009 (ip), vehicle: carboxymethylcellulose (CMC)): 123 % of control

Cc1c2oc3c(C)ccc(C(=O)NC4C(=O)NC(C(C)C)C(=O)N(C)CC(=O)N(C)CC(=O)N(C)C(C(C)C)C(=O)OC4C)c3nc-2c(C(=O)NC2C(=O)NC(C(C)C)C(=O)N(C)CC(=O)N(C)CC(=O)N(C)C(C(C)C)C(=O)OC2C)c(N)c1=O (stereo not given) (I: TV[Sar][Sar][NMeV] / II: TV[Sar][Sar][NMeV]; ester I:1-I:C, II:1-II:C; linker I:N-II:N via Actinocin(9to1); configuration not given here)
T/C (dose: 0.71 mg/kg/injection, schedule: Q01DX009 (ip), vehicle: water): 161 % of control
T/C (dose: 1.07 mg/kg/injection, schedule: Q01DX009 (ip), vehicle: water): 161 % of control
T/C (dose: 125.0 micrograms/kg/injection, schedule: Q01DX009 (ip), vehicle: saline + alcohol): 112 % of control
T/C (dose: 375.0 micrograms/kg/injection, schedule: Q04DX003 (ip), vehicle: saline + alcohol): 117 % of control and 123 % of control
T/C (dose: 1500.0 micrograms/kg/injection, schedule: Q04DX003 (ip), vehicle: saline + alcohol): 162 % of control
T/C (dose: 3000.0 micrograms/kg/injection, schedule: Q04DX003 (ip), vehicle: saline + alcohol): 159 % of control

Cc1cccc(C2CCCC2c2ccccc2)c1 (stereo not given)
T/C (dose: 75.0 mg/kg/injection, schedule: Q01DX009 (ip), vehicle: Klucel (hydroxypropylcellulose) (HPC)): 88 % of control
T/C (dose: 150.0 mg/kg/injection, schedule: Q01DX009 (ip), vehicle: Klucel (hydroxypropylcellulose) (HPC)): 97 % of control
T/C (dose: 300.0 mg/kg/injection, schedule: Q01DX009 (ip), vehicle: Klucel (hydroxypropylcellulose) (HPC)): 100 % of control

NC(CCCC(=O)O)P(=O)(O)O (stereo not given)
T/C [3]: 98 % of control
T/C [1]: 98 % of control

Cc1ccc(Nc2nnc(N=Nc3ccccc3)s2)cc1C
T/C [3]: 86 % of control
T/C [1]: 91 % of control
T/C [2]: 91 % of control

Cc1ccc(C2NC(=O)c3ccccc3N2)c(C)c1 (stereo not given)
T/C [1]: 109 % of control
T/C [2]: 109 % of control
T/C [4]: 109 % of control

Cc1cc(=O)[nH]o1
T/C (dose: 100.0 mg/kg/injection, schedule: Q01DX009 (ip), vehicle: saline): 106 % of control
T/C (dose: 200.0 mg/kg/injection, schedule: Q01DX009 (ip), vehicle: saline): 105 % of control
T/C (dose: 400.0 mg/kg/injection, schedule: Q01DX009 (ip), vehicle: saline): 99 % of control

CCN(CC)CCCCCOC(=O)c1ccccc1
T/C [3]: 112 % of control
T/C [1]: 93 % of control
T/C [2]: 103 % of control

COc1ccc(OC(=O)Nc2ccccc2OC)cc1
T/C [1]: 100 % of control
T/C [2]: 93 % of control
T/C [4]: 93 % of control

CN1CCN(CCCN2c3ccccc3Sc3ccc(C(F)(F)F)cc32)CC1
T/C (dose: 0.58 mg/kg/injection, schedule: Q01DX009 (ip), vehicle: saline): 117 % of control
T/C (dose: 0.78 mg/kg/injection, schedule: Q01DX009 (ip), vehicle: saline): 102 % of control
T/C (dose: 1.17 mg/kg/injection, schedule: Q01DX009 (ip), vehicle: saline): 112 % of control
T/C (dose: 1.56 mg/kg/injection, schedule: Q01DX009 (ip), vehicle: saline): 102 % of control
T/C (dose: 2.34 mg/kg/injection, schedule: Q01DX009 (ip), vehicle: saline): 112 % of control
T/C (dose: 3.12 mg/kg/injection, schedule: Q01DX009 (ip), vehicle: saline): 112 % of control and 110 % of control
T/C (dose: 4.68 mg/kg/injection, schedule: Q01DX009 (ip), vehicle: saline): 97 % of control
T/C (dose: 6.25 mg/kg/injection, schedule: Q01DX009 (ip), vehicle: saline): 102 % of control and 95 % of control
T/C (dose: 9.37 mg/kg/injection, schedule: Q01DX009 (ip), vehicle: saline): 115 % of control
T/C (dose: 12.5 mg/kg/injection, schedule: Q01DX009 (ip), vehicle: saline): 105 % of control and 102 % of control
T/C (dose: 25.0 mg/kg/injection, schedule: Q01DX009 (ip), vehicle: saline): 102 % of control
